From US5196415A, “5-aminocarbonyl-5H-dibenzo[a.d]cyclohepten-5,10-imines for treatment of epilepsy and cocaine addiction” (The United States of America as represented by the …, priority 1992, dated 1993)

Legend:
[1] = in words; cited from earlier work
[2] = system: phencyclidine binding sites in the central nervous system; settings: in words; cited from earlier work
[3] = compared to 17% who received a placebo; cited from earlier work
[4] = in words; cited from earlier work; remark: listed apart in the source
[5] = protection against maximal electroshock induced seizures (corneal electroshock, tonic-extensor component); type: in vivo, male CF-1 type mice; settings: Mus musculus, ip, 0.25 h; mice, intraperitoneal, saline carrier, 15 min before electroshock (30 mA, 50 Hz, 0.1 s)
Method: (§1) Compound 1 was administered intraperotoneally to male CF-1 type mice (20-25 g) with a saline solution carrier. The dose effect behavior was determined by the administration of six different doses of each compound, treating eight mice at each dose. After a period of fifteen minutes, the mice were subjected to corneal application of electroshock (30 mA at 50 Hz for 0.1 s). The ED50 and the 95% confidence intervals of drug which eliminated the tonic-extensor component of the convulsion in 50% of the animals was calculated by the method of Litchfield and Wilcoxon (J. Pharmacol. Exp. Ther. 1949, 96, 99). Drug induced motor toxicity was examined using the inverted screen test which measures the ability of mice to hold onto a screen which has been turned vertical. Control animals will be able to hold on.

[6] = drug induced motor toxicity, inverted screen test; settings: mouse, in vivo, ip, mice
Method: as §1

## CC12NC(Cc3ccccc31)c1ccccc12 (single isomer, unassigned) [MK-801]
[1]
  sedative side effects: essentially free of the usual sedative side effects
[2]
  affinity for phencyclidine binding sites: high affinity

## NC(=O)N1c2ccccc2C=Cc2ccccc21 [Carbamazepine, 5-carbamyl-5H-dibenzo[b,f]azepine]
[3]
  addicts taking the medication able to abstain from cocaine for a prescribed period: 59%
[4]
  acute and motor toxicity: low acute and motor toxicity
  anticonvulsant activity: good activity
  bioavailability: low bioavailability
  bone marrow suppression: implicated in bone marrow suppression
  toxic overdose reported: only one case of toxic overdose has been reported

## NC(=O)C12NC(Cc3ccccc31)c1ccccc12 (centres unmarked) [Compound 1, 5-Aminocarbonyl-10,11-dihydro-5H-dibenzo[a,d]cyclohepten-5,10-imine]
[5]
  ED50: 8.9 mg/kg
[6]; intraperitoneal, inverted screen test
  TD50: 50 to 55 mg/kg
[6]; motor toxicity TD50 versus maximal electroshock ED50, read-out: therapeutic index (TI)
  selectivity ratio: 5.6 to 6.2
